Measured values: paper PMC4836865 (Chemical Science, 2015)

What was measured:
Assay type in all cases: biochemical
MelBEc [1] = target: T1, MelBEc (Escherichia coli, UniProt P02921); assay: Trp to dansyl FRET, reversed by melibiose; conditions: solubilised in NDT-C11; fluorescent ligand displaced by melibiose
MelBEc [2] = target: T1, MelBEc; assay: melibiose reversal of Trp to D2G FRET; conditions: solubilised in NDT-C11; displaces D2G
[3] = target: MelBSt (melibiose permease of Salmonella typhimurium) (Salmonella enterica, UniProt P30878); assay: melibiose reversal of Trp to D2G FRET; conditions: solubilised in DDM or NDT-C11; displaces D2G
Chain of MelBSt (melibiose permease of Salmonella typhimurium) (P30878 whole entry): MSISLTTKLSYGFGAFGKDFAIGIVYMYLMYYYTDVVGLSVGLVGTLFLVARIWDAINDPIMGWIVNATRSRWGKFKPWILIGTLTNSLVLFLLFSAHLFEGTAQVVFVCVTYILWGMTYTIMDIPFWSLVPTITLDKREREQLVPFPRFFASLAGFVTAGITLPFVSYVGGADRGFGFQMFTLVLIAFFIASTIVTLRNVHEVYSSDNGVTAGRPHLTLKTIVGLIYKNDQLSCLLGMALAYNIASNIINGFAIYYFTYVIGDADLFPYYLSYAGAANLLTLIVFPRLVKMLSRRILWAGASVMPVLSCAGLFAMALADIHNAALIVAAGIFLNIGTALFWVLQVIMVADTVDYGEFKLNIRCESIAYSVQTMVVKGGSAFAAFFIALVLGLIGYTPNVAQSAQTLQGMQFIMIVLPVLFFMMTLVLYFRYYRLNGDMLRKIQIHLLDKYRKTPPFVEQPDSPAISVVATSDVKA

T1 sequence (P02921 2-473): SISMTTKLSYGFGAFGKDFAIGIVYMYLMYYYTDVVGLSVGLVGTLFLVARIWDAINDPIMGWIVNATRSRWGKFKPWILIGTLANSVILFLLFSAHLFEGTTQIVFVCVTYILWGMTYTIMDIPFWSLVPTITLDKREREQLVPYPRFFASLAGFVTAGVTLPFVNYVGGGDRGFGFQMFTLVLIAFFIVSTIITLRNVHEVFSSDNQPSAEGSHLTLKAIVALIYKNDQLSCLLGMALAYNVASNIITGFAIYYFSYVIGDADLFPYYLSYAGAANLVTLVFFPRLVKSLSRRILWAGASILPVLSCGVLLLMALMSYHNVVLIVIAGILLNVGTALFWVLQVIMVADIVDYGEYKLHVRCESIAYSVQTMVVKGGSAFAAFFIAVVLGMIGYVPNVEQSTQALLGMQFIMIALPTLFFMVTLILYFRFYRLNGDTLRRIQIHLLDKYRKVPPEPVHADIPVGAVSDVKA

## CN(C)c1cccc2c(S(=O)(=O)NCCS[C@@H]3O[C@H](CO)[C@H](O)[C@H](O)[C@H]3O)cccc12 [2′-(N-dansyl)aminoalkyl-1-thio-β-D-galactopyranoside]
MelBEc [1]
  Trp to dansyl FRET, reversed by melibiose: FRET response of the D^2G bound MelB to melibiose or water addition

## OC[C@H]1O[C@H](OC[C@H]2OC(O)[C@H](O)[C@@H](O)[C@@H]2O)[C@H](O)[C@@H](O)[C@H]1O (stereo partly drawn) [melibiose]
MelBEc [2]
  melibiose reversal of Trp to D2G FRET: NDT-C11 is capable of maintaining the melibiose binding activity of both MelBSt and MelBEc
[3]
  melibiose reversal of Trp to D2G FRET: MelBSt solubilized in DDM or NDT-C11 was subjected to melibiose reversal of Trp
